For one experiment, the system named is HepG2. The experiment can be described thus: Cytotoxicity against Homo sapiens (human) HepG2 cells after 48 hr by MTT reduction assay. Type of experiment: functional, cell-based. The note with it: HepG2, 48 h. Background: Tetrazolium assays rely on reduction of a dye to a coloured formazan, in cell work by metabolically active cells.
A further experiment concerns SMMC-7721. The experiment can be described thus: Cytotoxicity against Homo sapiens (human) SMMC7721 cells after 48 hr by MTT reduction assay. The note with it: SMMC-7721, 48 h. The format is functional, cell-based.
Experiment [1] has as its target Cyclin-dependent kinase 1/cyclin B1 (Homo sapiens, UniProt P06493). The experiment can be described thus: Inhibition of CDK1/Cyclin B (unknown origin) by Z-LYTE assay. Type of experiment: protein-complex assay.

Sequence of Cyclin-dependent kinase 1/cyclin B1 (P06493 whole entry): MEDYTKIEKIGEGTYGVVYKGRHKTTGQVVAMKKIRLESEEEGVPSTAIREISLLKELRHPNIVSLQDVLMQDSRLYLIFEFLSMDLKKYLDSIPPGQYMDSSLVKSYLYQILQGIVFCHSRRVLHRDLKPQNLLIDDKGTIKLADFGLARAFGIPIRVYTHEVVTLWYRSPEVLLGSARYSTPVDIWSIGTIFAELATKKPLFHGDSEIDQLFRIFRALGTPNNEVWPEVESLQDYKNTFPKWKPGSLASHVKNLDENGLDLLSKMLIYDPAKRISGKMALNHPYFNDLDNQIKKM
Sequence of Cyclin-dependent kinase 1/cyclin B1 (P14635 whole entry, further chain): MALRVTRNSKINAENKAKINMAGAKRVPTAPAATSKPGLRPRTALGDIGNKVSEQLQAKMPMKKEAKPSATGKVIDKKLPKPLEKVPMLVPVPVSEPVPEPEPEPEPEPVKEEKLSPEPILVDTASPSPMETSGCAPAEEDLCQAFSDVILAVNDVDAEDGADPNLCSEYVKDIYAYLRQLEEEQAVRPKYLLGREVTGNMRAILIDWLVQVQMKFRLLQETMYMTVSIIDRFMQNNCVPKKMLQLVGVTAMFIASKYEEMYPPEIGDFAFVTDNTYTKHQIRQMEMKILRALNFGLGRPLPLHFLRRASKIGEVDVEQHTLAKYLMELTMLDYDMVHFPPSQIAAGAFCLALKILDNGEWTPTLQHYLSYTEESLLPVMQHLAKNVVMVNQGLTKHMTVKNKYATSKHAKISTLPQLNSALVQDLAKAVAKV

In general, IC50 refers to the concentration needed to halve the response being measured. Low values mean greater potency in that assay, high ones weaker potency in that assay. As to `Cc1ccc2oc(-c3ccc(N)cc3)cc(=O)c2c1`, the IC50 in the experiment on HepG2 stood at 21.3 µM. For `CN1CCN(Cc2ccc3c(=O)cc(-c4ccccc4Cl)oc3c2)CC1`, the results for the IC50 in the experiment with HepG2 and in the experiment on SMMC-7721 were 14.2 µM and 12.9 µM, respectively. For `O=c1cc(-c2ccccc2Cl)oc2cc(CN3CCNCC3)ccc12`, in that order: 2.58 µM and 1.91 µM. In the experiment on SMMC-7721, `CN(C)Cc1ccc2c(=O)cc(-c3ccccc3Cl)oc2c1` showed a half-inhibitory concentration (IC50) of 28.2 µM.

Regarding `O=c1cc(-c2ccc(Cl)cc2)oc2ccc(CN3CCCCC3)cc12`, the values for the concentration for half-maximal inhibition (IC50) in the experiment with HepG2 and in the experiment with SMMC-7721 were 14 µM and 16.2 µM, respectively. Regarding `O=c1cc(-c2ccc(Cl)cc2)oc2ccc(CN3CCNCC3)cc12`, the IC50 turned out to be 2.69 µM in the experiment with HepG2 and 1.51 µM in the experiment on SMMC-7721.

`CC[N+](CC)(CC)Cc1ccc2oc(-c3ccccc3Cl)cc(=O)c2c1` showed an IC50 in the experiment on HepG2 of 61 µM. On to `Nc1ccc(-c2cc(=O)c3cc(CN4CCCCC4)ccc3o2)cc1`, for which the half-maximal inhibitory concentration (IC50) in the experiment on HepG2 was 2.64 µM; in the experiment with SMMC-7721 it was 3.68 µM. `Cc1ccc2c(=O)cc(-c3ccc(Cl)cc3)oc2c1` showed an IC50 in the experiment with HepG2 of 6.83 µM.

As for `Cc1ccc2c(=O)cc(-c3ccccc3Cl)oc2c1`, 28.3 µM corresponded to half-maximal inhibition in the experiment with HepG2 (IC50). The compound `Cc1ccc2c(=O)cc(-c3ccc(N)cc3)oc2c1` came in with an IC50 in the experiment on HepG2 of 40.5 µM.

On to `CN1CCN(Cc2ccc3c(=O)cc(-c4ccc([N+](=O)[O-])cc4)oc3c2)CC1`, for which half-maximal inhibition in the experiment on SMMC-7721 (IC50) was put at 10.7 µM. As for `O=c1cc(-c2ccc([N+](=O)[O-])cc2)oc2c(CN3CCNCC3)cc(Cl)cc12`, the IC50 with HepG2 amounted to 0.243 µM; in experiment [1], 4.84 µM; in the experiment on SMMC-7721 it was 1.1 µM. `CN(C)Cc1cc(Cl)cc2c(=O)cc(-c3ccc([N+](=O)[O-])cc3)oc12`: the IC50 with HepG2 is 6.19 µM; with SMMC-7721 it was 56.5 µM. For `O=c1cc(-c2ccc([N+](=O)[O-])cc2)oc2c(Cn3ccnc3)cc(Cl)cc12`, the figures for the IC50 (in the experiment with HepG2; in experiment [1]; in the experiment on SMMC-7721) were 2.94 µM, 2.14 µM and 1.2 µM, respectively.

As for `CCN(CC)Cc1cc(Cl)cc2c(=O)cc(-c3ccccc3Cl)oc12`, the results for the IC50 (in the experiment on HepG2; in experiment [1]; in the experiment on SMMC-7721) were 7.94 µM, 2.06 µM and 0.81 µM, respectively. Consider `O=c1cc(-c2ccccc2Cl)oc2c(CN3CCCCC3)cc(Cl)cc12`, for which the half-maximal inhibitory concentration (IC50) with HepG2 came to 10.7 µM; in the experiment with SMMC-7721 it was 3.4 µM. Turning to `CN1CCN(Cc2cc(Cl)cc3c(=O)cc(-c4ccccc4Cl)oc23)CC1`, the IC50 with SMMC-7721 is 3.1 µM. For `O=c1cc(-c2ccccc2Cl)oc2c(CN3CCOCC3)cc(Cl)cc12`, the values for the IC50 with HepG2 and in the experiment with SMMC-7721 were 6.81 µM and 13.2 µM, respectively.

Turning to `O=c1cc(-c2ccccc2Cl)oc2c(CN3CCNCC3)cc(Cl)cc12`, the results for the IC50 with HepG2 and with SMMC-7721 were 18.7 µM and 2.69 µM, respectively.

For `CN(C)Cc1cc(Cl)cc2c(=O)cc(-c3ccccc3Cl)oc12`, the IC50 in the experiment on HepG2 is 1.87 µM; with SMMC-7721 it was 1.14 µM.

On to `O=c1cc(-c2ccccc2Cl)oc2c(Cn3ccnc3)cc(Cl)cc12`, for which the IC50 worked out at 3.27 µM in the experiment on HepG2 and 1.07 µM in the experiment with SMMC-7721. Turning to `O=c1cc(-c2ccc(Cl)cc2)oc2c(CN3CCOCC3)cc(Cl)cc12`, the half-maximal inhibitory concentration (IC50) in the experiment on HepG2 came to 6.33 µM; in experiment [1], 2.17 µM; in the experiment on SMMC-7721, 15.3 µM.

As to `Cc1ccc2oc(-c3ccccc3Cl)cc(=O)c2c1`, the results for the IC50 in the experiment with HepG2 and in the experiment on SMMC-7721 were 6.23 µM and 15.1 µM, respectively. Turning to `CN1CCN(Cc2ccc3oc(-c4ccc([N+](=O)[O-])cc4)cc(=O)c3c2)CC1`, the IC50 in the experiment on SMMC-7721 stood at 19 µM. `Cc1cc(Cl)cc2c(=O)cc(-c3ccc(N)cc3)oc12` registered an IC50 with HepG2 of 11.9 µM. With `CCN(CC)Cc1cccc2c(=O)cc(-c3ccc([N+](=O)[O-])cc3)oc12`, the figures for the IC50 (in the experiment with HepG2; in experiment [1]) were 28.8 µM and 2.21 µM, respectively. With `CN1CCN(Cc2cccc3c(=O)cc(-c4ccc([N+](=O)[O-])cc4)oc23)CC1`, the results for the 50% inhibitory concentration (IC50) (in the experiment on HepG2; in experiment [1]; in the experiment on SMMC-7721) were 2.94 µM, 8.13 µM and 1.19 µM, respectively. In the case of `CCN(CC)Cc1cc(Cl)cc2c(=O)cc(-c3ccc([N+](=O)[O-])cc3)oc12`, the values for the IC50 with HepG2 and with SMMC-7721 were 1.19 µM and 2.99 µM, respectively.

As for `O=c1cc(-c2ccc([N+](=O)[O-])cc2)oc2c(CN3CCCCC3)cc(Cl)cc12`, the figures for the IC50 in the experiment on HepG2 and in the experiment with SMMC-7721 were 8.91 µM and 1.09 µM, respectively.

In the case of `CN1CCN(Cc2cc(Cl)cc3c(=O)cc(-c4ccc([N+](=O)[O-])cc4)oc23)CC1`, the IC50 with HepG2 came to 1.76 µM; in experiment [1], 6.22 µM; in the experiment with SMMC-7721 it was 5.21 µM. Consider `O=c1cc(-c2ccc([N+](=O)[O-])cc2)oc2cc(CN3CCNCC3)ccc12`, for which the half-maximal inhibitory concentration (IC50) in the experiment with HepG2 came out at 4.53 µM; in the experiment with SMMC-7721, 2.03 µM. In the case of `CCN(CC)Cc1ccc2c(=O)cc(-c3ccccc3Cl)oc2c1`, in the experiment on HepG2, the IC50 was found to be 10.7 µM. Same read-out and setting: the value for `O=c1cc(-c2ccccc2Cl)oc2cc(CN3CCCCC3)ccc12` was 3.64 µM.

The values above are taken from ChEMBL document CHEMBL3045246, “Investigation on the substitution effects of the flavonoids as potent anticancer agents: a structureactivity relationships study” (Med Chem Res, 2012).
